From patent US20040034107A1, “Ubiquinone Qn for the treatment of pain” (MSE Pharmazeutika GmbH, priority 1999, published 2004)

Columns and labels:
[1] = treatment of migraine pain with Q-10; type: in vivo
Method: The substances to be used according to the invention can be preferably employed for the treatment of pain which is caused by migraine, dialysis, herpes zoster, cancer, diabetic neuropathy, or generalized pain conditions. The treatment can be done by administration in oral, parenteral, local, inhalative or intranasal form. The kind of administration must be adapted to the pain condition to be treated. […] Good results were achieved already with doses of about 20 mg.
Due to the low dose which is already effective for treating migraine pain, the ubiquinone Qn or its precursors are preferably used in the form of a spray, preferably a nasal spray, according to the invention.

[2] = local treatment of herpes zoster pain; type: in vivo; details: local application in the form of creams or gels
Excerpt: In the case of herpes zoster, even the local application of Q-10 in the form of creams or gels has even proven useful. It is critical that sufficient amounts of the ubiquinones or ubiquinone precursors arrive at the place in which the pain caused by disturbances of the signal transmission of the nerve system has its origin.

COC1=C(OC)C(=O)C(C/C=C(\C)CC/C=C(\C)CC/C=C(\C)CC/C=C(\C)CC/C=C(\C)CC/C=C(\C)CC/C=C(\C)CC/C=C(\C)CC/C=C(\C)CCC=C(C)C)=C(C)C1=O [Q-10, 2,3-dimethoxy-5-methyl-6-decaprenyl-1,4-benzoquinone]
treatment of migraine ([1]; oral administration, high doses): only with very limited success | elimination of migraine pain ([1]; oral and nasal sprays, small amounts): fast and effective elimination of migraine pain | results in migraine pain ([1]; sprays, doses of about 20 mg): Good results | treatment of herpes zoster pain [2]: proven useful
